Assay results from patent US20260070924A1, “INDAZOLE MACROCYCLES AND THEIR USE” (BLOSSOMHILL THERAPEUTICS, INC., priority 2022, published 2026).

Key:
MOLM-13 cell line = test: Alternative splicing events by RNAseq in MOLM-13; assay type: cell-based; conditions: 8 hour-incubation
Method: Alternative splicing events were measured by RNAseq in MOLM-13 cell line. Cells were plated in 24 well plates at 1 million cells per well and then treated with compounds at different concentrations, with DMSO as control. After 8 hour-incubation, cells were harvested and washed once with ice-cold PBS, and lysed in RNA lysis buffer (Invitrogen). Total RNA was extracted using the RNA Purification Kit (Invitrogen). RNAseq was performed by Biomiga (San Diego).

FLT3 = FLT3 (Homo sapiens (Human), UniProt P36888); test: HotSpot radiometric kinase assay (Reaction Biology); assay type: biochemical
Method: Briefly, specific kinase/substrate pairs along with required cofactors were prepared in reaction buffer; 20 mM Hepes pH 7.5, 10 mM MgCl2, 1 mM EGTA, 0.02% Brij35, 0.02 mg/ml BSA, 0.1 mM Na3VO4, 2 mM DTT, 1% DMSO. Compounds were delivered into the reaction, followed ˜20 minutes later by addition of a mixture of ATP (Sigma, St. Louis MO) and ^33P ATP (Perkin Elmer, Waltham MA) to a final concentration of 10 M. Reactions were carried out at room temperature for 120 min, followed by spotting of the reactions onto P81 ion exchange filter paper (Whatman Inc., Piscataway, NJ). Unbound phosphate was removed by extensive washing of filters in 0.75% phosphoric acid. […] IC50 values and curve fits were obtained using Prism (GraphPad Software).

phospho-FLT3 (Y589/Y591) = phospho-FLT3 (Y589/Y591) (Homo sapiens (Human), UniProt P36888, INS600HVDFREYEYD); test: Inhibition of kinase phosphorylation by Western Blot in MV-4-11; assay type: cell-based; conditions: MV-4-11 cells, 4 hour-incubation; read-out: pFLT3 MV-4-11 IC50
Method: Inhibition of kinase phosphorylation assay was performed by Western Blot using MV-4-11 and MOLM13 cell lines. Cells were plated in 24 well plates at 1 million cells per well and then treated with compounds at different concentrations, starting at 100 nM, 1:4 titration with DMSO as control. After 4 hour-incubation, cells were washed once with ice-cold PBS, and lysed in RIPA lysis buffer with protease and phosphatase inhibitors. The cell lysates were then sonicated and spun down, and 40 μg of proteins were separated by sodium dodecyl sulfate electrophoresis on a 4 to 12% Bis-Tris polyacrylamide gel and transferred onto nitrocellulose membranes using Bio-Rad Trans-Blot Turbo Transfer System (Bio-Rad). Blocking was performed using 3% BSA or 5% Non-fat dry milk (Fisher Scientific) in TBST (Tris-buffered saline containing 0.05% of Tween 20) (Bio-Rad Laboratories, Inc.). […] Luminescence was detected by LI-COR Odyssey M imaging system and luminescence intensity were quantified using Empiria Studio 2.2 software. Data was analyzed using GraphPad Prism 9 (GraphPad Software, San Diego, CA) to obtain IC50 values.

BaF3 = test: Cell proliferation panel (CellTiter-Glo 2.0, 5 days); assay type: cell-based; conditions: murine IL-3 dependent pro-B cell line, with 1 ng/mL mouse IL-3
From the text: (§1) Ba/F3 cells were purchased from DSMZ. The FLT3-ITD gene was synthesized at GenScript and cloned into pCDH-CMV-MCS-EF1-Puro plasmid (System Biosciences, Inc). FLT3-ITD/D835V and FLT3-ITD/F691L cDNA clones were made at GenScript by PCR and confirmed by sequence. Ba/F3 FLT3-ITD, FLT3-ITD/D835V and FLT3-ITD/F691L cell lines were generated by infecting Ba/F3 cells with lentivirus containing FLT3-ITD, FLT3-ITD/D835V or FLT3-ITD/F691L genes. Stable cell lines were selected by puromycin treatment, followed by IL-3 withdrawal.
(§2) Cell proliferation assay was carried out in a panel of 108 cell lines. 1000 (attached cells) or 3000 (suspension cells) cells/100 μl per well were seeded in 96 well black plate with a clear bottom (Corning #3904). Compounds were added using Tecan D300e Digital Dispenser in 1:3 titration for 9 doses. Plates were incubated for 5 days at 37° C. and 5% CO2. Cell proliferation was measured using CellTiter-Glo 2.0 luciferase-based ATP detection assay (Promega, Madison, WI) at 50 μl per well following the manufacturer's protocol. Plates were then read on a TECAN Sparks multimode microplate reader. Data was analyzed using GraphPad Prism 9 (GraphPad Software, San Diego, CA) to obtain IC50 values. IC50 values were determined using Prism software (GraphPad Software, San Diego, CA).

BaF3 FLT3-ITD/D835V = test: as above; assay type: cell-based; conditions: murine pro-B cell line expressing FLT3-ITD/D835V
From the text: as §1, §2

BaF3 FLT3-ITD/F691L = test: as above; assay type: cell-based; conditions: murine pro-B cell line expressing FLT3-ITD/F691L
From the text: as §1, §2

BaF3 FLT3-ITD = test: as above; assay type: cell-based; conditions: murine pro-B cell line expressing FLT3-ITD
From the text: as §1, §2

SW403 tumor = test: Cell-derived xenograft (CDX) tumor model; assay type: in vivo; conditions: mice, oral 25 mg/kg QD, 20 days
Method: (§3) Tumor cells were cultured using standard techniques described above and were harvested and pelleted by centrifugation at 1000 rpm for 5 minutes. The pelleted cells were washed once with serum-free medium followed by subsequent re-suspension in the serum-free medium supplemented with 50% matrigel (Corning, Inc). Five million tumor cells were implanted subcutaneously to the right flank of each mouse, followed by tumor volume and body weight measurement once or twice per week with an electronic caliper (Fowler) and a balance, respectively. When the average tumor size reached a pre-determined volume, the mice were grouped and treated with Ex. 6. One group of mice were treated with vehicle as control. During treatment, mice were monitored daily by cage side observation. The tumor volume (TV) and body weight was measured twice or three times per week during the treatment. Study ended either after 4-5 weeks of treatment or tumor volume of any mice reached 1000 or 2000 mm^3. Tumor growth inhibition (TGI) was be calculated as follows: […]

MOLM-13 tumor = test: Cell-derived xenograft (CDX) tumor model; assay type: in vivo; conditions: MOLM-13 CDX, mice, 13 days
Method: as §3

IMR-32 tumor = test: Cell-derived xenograft (CDX) tumor model; assay type: in vivo; conditions: IMR-32 CDX, mice, oral 25 mg/kg QD, 8 days
Method: as §3

SW480 tumor = test: Cell-derived xenograft (CDX) tumor model; assay type: in vivo; conditions: mice, oral 25 mg/kg QD, 28 days
Method: as §3

MV-4-11 tumor = test: Cell-derived xenograft (CDX) tumor model; assay type: in vivo; conditions: MV-4-11 CDX, mice, 20 days
Method: as §3

[1] = system: BCLAF1 exon10-12/exon 10-11; test: Alternative splicing ratio by qPCR in MOLM-13; assay type: cell-based; conditions: DMSO = 1.00
Method: (§4) Alternative splicing ratio of RNA transcripts was measured by qPCR in MV-4-11 and MOLM-13 cell lines. Cells were plated in 24 well plates at 1 million cells per well and then treated with compounds at different concentrations, with DMSO only as control. After 8-hour-incubation, cells were harvested and washed once with ice-cold PBS, and lysed in RNA lysis buffer (Invitrogen). Total RNA was extracted using the RNA Purification Kit (Invitrogen). 2 μg of RNA was used for cDNA synthesis using cDNA synthesis kit (ThermoFisher) and 20 ng of cDNA was used for qPCR using PROFLEX 96-Well PCR System (ThermoFisher).
Primers with the following sequences were used for the measurement: • BCLAF1 exon10-12/exon 10-11 (TaqMan, IDT)

[2] = system: S6K (PRS6KB1) exon6-8/exon 6-7; test: Alternative splicing ratio by qPCR in MOLM-13; assay type: cell-based; conditions: DMSO = 1.02
Method: as §4

Chain of FLT3 (P36888 27-993): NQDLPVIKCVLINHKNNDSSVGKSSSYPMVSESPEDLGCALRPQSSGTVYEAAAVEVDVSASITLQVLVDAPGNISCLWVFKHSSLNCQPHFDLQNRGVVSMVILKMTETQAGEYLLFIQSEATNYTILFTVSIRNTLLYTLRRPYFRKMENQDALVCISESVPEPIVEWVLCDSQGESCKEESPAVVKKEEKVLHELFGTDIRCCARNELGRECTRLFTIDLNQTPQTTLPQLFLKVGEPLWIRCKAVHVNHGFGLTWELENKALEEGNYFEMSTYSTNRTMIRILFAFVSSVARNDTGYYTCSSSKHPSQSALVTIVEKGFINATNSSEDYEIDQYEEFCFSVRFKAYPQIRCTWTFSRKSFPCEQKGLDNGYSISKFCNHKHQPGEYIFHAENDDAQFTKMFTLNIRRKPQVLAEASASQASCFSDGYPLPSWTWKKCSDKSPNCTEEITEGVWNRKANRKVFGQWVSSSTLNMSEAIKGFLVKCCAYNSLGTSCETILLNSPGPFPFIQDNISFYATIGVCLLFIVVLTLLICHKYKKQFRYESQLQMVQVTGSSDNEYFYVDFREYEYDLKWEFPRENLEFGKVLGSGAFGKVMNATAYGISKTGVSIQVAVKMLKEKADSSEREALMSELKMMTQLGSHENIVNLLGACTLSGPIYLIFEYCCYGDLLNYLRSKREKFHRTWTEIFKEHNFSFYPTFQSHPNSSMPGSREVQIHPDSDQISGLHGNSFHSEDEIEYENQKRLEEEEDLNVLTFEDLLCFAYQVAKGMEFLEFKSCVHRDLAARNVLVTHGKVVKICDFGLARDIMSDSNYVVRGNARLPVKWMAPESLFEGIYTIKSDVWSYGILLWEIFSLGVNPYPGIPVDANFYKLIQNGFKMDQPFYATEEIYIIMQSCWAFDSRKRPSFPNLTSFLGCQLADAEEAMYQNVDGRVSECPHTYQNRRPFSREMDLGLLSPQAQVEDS
Chain of phospho-FLT3 (Y589/Y591) (P36888 whole entry, looked up, stated change not applied): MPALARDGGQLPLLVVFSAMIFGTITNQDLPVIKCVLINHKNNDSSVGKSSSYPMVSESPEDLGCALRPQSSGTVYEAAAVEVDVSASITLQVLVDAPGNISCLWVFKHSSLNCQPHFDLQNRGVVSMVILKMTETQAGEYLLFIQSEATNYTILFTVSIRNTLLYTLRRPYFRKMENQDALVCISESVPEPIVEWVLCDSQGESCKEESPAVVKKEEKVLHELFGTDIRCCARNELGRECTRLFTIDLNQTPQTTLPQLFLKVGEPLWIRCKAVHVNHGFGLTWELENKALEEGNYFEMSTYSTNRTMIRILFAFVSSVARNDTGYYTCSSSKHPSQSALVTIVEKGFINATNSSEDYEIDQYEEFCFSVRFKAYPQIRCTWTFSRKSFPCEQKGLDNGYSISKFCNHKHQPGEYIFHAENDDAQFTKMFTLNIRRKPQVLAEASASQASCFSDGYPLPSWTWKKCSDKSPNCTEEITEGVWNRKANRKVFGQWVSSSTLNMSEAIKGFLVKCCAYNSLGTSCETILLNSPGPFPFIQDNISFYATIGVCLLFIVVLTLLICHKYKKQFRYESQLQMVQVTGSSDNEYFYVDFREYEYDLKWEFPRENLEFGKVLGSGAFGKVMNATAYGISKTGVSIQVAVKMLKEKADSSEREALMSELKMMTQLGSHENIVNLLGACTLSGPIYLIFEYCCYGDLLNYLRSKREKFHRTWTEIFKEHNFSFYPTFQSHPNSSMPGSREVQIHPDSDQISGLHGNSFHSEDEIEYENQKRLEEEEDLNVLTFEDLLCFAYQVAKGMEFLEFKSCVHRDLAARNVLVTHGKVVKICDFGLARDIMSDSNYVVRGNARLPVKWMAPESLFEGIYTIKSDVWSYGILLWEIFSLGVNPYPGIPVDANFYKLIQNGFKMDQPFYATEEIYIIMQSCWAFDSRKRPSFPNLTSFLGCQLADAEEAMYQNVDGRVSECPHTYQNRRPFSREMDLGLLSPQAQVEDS

CCc1nn(C)c2c1/C=C/c1n[nH]c3ccc(cc13)-c1cnn(C)c1OCCN(C)C2=O [Ex. 6, (17E)-16-ethyl-8,12,14-trimethyl-2,11,12,14-tetrahydro-8H-3,5-ethenotripyrazolo[3,4-f:3′,4′-j:4″,3″-n][1,4]oxazacyclopentadecin-13(10H)-one]
AS Events A3′SS (alternative 3′ splice site) (MOLM-13 cell line; MOLM-13, 30 nM): 371 | AS Events A5′SS (alternative 5′ splice site) (MOLM-13 cell line; MOLM-13, 30 nM): 289 | AS Events MXE (mutually exclusive exons) (MOLM-13 cell line; MOLM-13, 30 nM): 187 | AS Events RI (retained intron) (MOLM-13 cell line; MOLM-13, 30 nM): 536 | AS Events SE (skipped exon) (MOLM-13 cell line; MOLM-13, 30 nM): 2054 | AS Events A3′SS (alternative 3′ splice site) (MOLM-13 cell line; MOLM-13, 100 nM): 559 | AS Events A5′SS (alternative 5′ splice site) (MOLM-13 cell line; MOLM-13, 100 nM): 443 | AS Events MXE (mutually exclusive exons) (MOLM-13 cell line; MOLM-13, 100 nM): 325 | AS Events RI (retained intron) (MOLM-13 cell line; MOLM-13, 100 nM): 841 | AS Events SE (skipped exon) (MOLM-13 cell line; MOLM-13, 100 nM): 4568 | AS Events A3′SS (alternative 3′ splice site) (MOLM-13 cell line; MOLM-13, 300 nM): 722 | AS Events A5′SS (alternative 5′ splice site) (MOLM-13 cell line; MOLM-13, 300 nM): 590 | AS Events MXE (mutually exclusive exons) (MOLM-13 cell line; MOLM-13, 300 nM): 355 | AS Events RI (retained intron) (MOLM-13 cell line; MOLM-13, 300 nM): 1184 | AS Events SE (skipped exon) (MOLM-13 cell line; MOLM-13, 300 nM): 5093 | IC50 (FLT3): 0.088 nM | IC50 (phospho-FLT3 (Y589/Y591)): 0.16 nM | IC50 (BaF3): 513 nM | IC50 (BaF3 FLT3-ITD/D835V): 1.3 nM | IC50 (BaF3 FLT3-ITD/F691L): 22.9 nM | IC50 (BaF3 FLT3-ITD): 0.55 nM | TGI % (SW403 tumor): 84% | TGI % (MOLM-13 tumor; oral 12.5 mg/kg QD): 74% | TGI % (MOLM-13 tumor; oral 25 mg/kg QD): 94% | TGI % (IMR-32 tumor): 82% | TGI % (SW480 tumor): 93% | TGI % (MV-4-11 tumor; oral 6.25 mg/kg QD): 98.8% | TGI % (MV-4-11 tumor; oral 12.5 mg/kg QD): 189% | TGI % (MV-4-11 tumor; oral 25 mg/kg QD, 5dOn-2dOff): 200% | TGI % (MV-4-11 tumor; oral 25 mg/kg QD): 200% | Alternative Splicing Ratio BCLAF1 Ex. 10-12/Ex. 10-11 ([1]; MOLM-13, 30 nM): 1.80 | Alternative Splicing Ratio BCLAF1 Ex. 10-12/Ex. 10-11 ([1]; MOLM-13, 100 nM): 5.76 | Alternative Splicing Ratio BCLAF1 Ex. 10-12/Ex. 10-11 ([1]; MOLM-13, 300 nM): 6.89 | Alternative Splicing Ratio S6K Ex. 6-8/Ex. 6-7 ([2]; MOLM-13, 30 nM): 1.60 | Alternative Splicing Ratio S6K Ex. 6-8/Ex. 6-7 ([2]; MOLM-13, 100 nM): 2.71 | Alternative Splicing Ratio S6K Ex. 6-8/Ex. 6-7 ([2]; MOLM-13, 300 nM): 8.08
